Experimental data reported in patent US20070037800A1, “Method of treating neurological disorders using clotrimazole and derivatives thereof” (EnVivo Pharmaceuticals, Inc., priority 2005, published 2007).

Experiments:
[1] = system: Kainic acid lesion in C57BL/6 mice; assay: Mouse model of acute neurodegeneration: kainic acid lesion volume; format: in vivo; details: KA 1.0 nmol i.s.; clotrimazole 2 mg/kg i.p. twice daily; vs KA+vehicle; P=0.010 (t test of difference in log[size]); two days after KA
Description: To test the hypothesis that clotrimazole may be neuroprotective against KA induced excitatory damage in the brain, clotrimazole was compared to benzamide as a positive control in the mouse model. Three study groups (n=8-9) were tested: (1) C57BL/6 treated with KA 1.0 nmol (i.s.) left hemisphere+vehicle (i.p.); (2) KA 1.0 nmol i.s. left hemisphere+clotrimazole (2mg/kg) i.p. twice daily for duration of the study (including a single dose 1 hour before KA); and (3) KA 1.0 nmol i.s. left hemisphere+benzamide (160 mg/kg, i.p. 30 min before injection and 3.5 hrs after). Kainic Acid (K0250), clotrimazole (C6019) and Benzamide (150762) were purchased from Sigma and prepared as followed: Kainic Acid was dissolved in phosphate buffered saline (1×PBS, pH 7.4), pH to 7.4 using NaOH. […]
Two days after injection of KA the animals were anesthetized and transcardially perfused with ice cold phosphate buffered saline (0.1 M PBS, pH 7.4) containing 10% sucrose and then perfused with ice-cold 4% paraformaldehyde in 0.1M PBS, pH 7.4. […] The area of the lesion, indicated by the lack of staining when compared to the contralateral (intact) striatum/cortex, was measured in each series of sections (n=25-30) blindly by means of an image analysis program and the lesion volume was calculated by a stereological method (Cavalieri's estimator of volume corrected for over projection).

R6/2 transgenic mice [2] = assay: Body weight in R6/2 transgenic mouse model of Huntington's disease; format: in vivo
Description: (§1) The rotarod test and body weight measurements were used to assess the therapeutic effects of clotrimazole in R6/2 transgenic mice. R6/2 and WT male mice at 4 weeks of age were trained 3 consecutive days on the accelerating rotarod. Each training day consisted of four sessions. After the training was complete, the animals were reassigned to new groups to create statistically homogenous cohorts. At 5 weeks of age, animals (n=10 per group) were dosed twice daily, intraperitoneally (IP) with clotrimazole at either 2 mg/kg or 10 mg/kg (equal to 4 and 20 mg/kg per day). Rotarod testing was performed at 6, 8, 10, and 12 weeks of age as described above. Body weights were collected every week.

R6/2 transgenic mice [3] = assay: Rotarod test in R6/2 transgenic mouse model of Huntington's disease; format: in vivo
Description: as §1

R6/2 mice = assay: Gait analysis (DigiGait) in R6/2 mice; format: in vivo, mouse
Excerpt: Gait analysis was also collected at 12 weeks, which is a time when clear differences have previously been described between R6/2 and wild-type. In this analysis, the DigiGait™ Imaging System, which is non-invasive, robust, and quantitative—in that it generates numerous indices of gait dynamics and posture—was used. The system simplifies kinematic observations and analyses by imaging the animals from below a transparent treadmill. Software, including artificial intelligence algorithms, quantifies the characteristics of gait, including step sequence patterns, stride length, cadence, and paw placement. The output also includes swing and stance durations, as well as braking and propulsion durations. Indices computed by DigiGait convey information about sensory and motor inputs modulating gait and gait variability.

microglia activation = details: has been shown; no source given; cited from earlier work
[4] = cited from earlier work

Clc1ccccc1C(c1ccccc1)(c1ccccc1)n1ccnc1 [clotrimazole]
Lesion volume [1]: statistically significant improvement | Body weight compared to vehicle-treated R6/2 mice (R6/2 transgenic mice [2]; 4 mg/kg IP-BID, 12 week of age, F test ANOVA): maintained a higher body weight | Body weight effect (R6/2 transgenic mice [2]; 20 mg/kg IP-BID, any time point tested): did not have a statistically significant effect | Weight in vivo (R6/2 transgenic mice [2]; low dose of 4 mg/kg/day, preliminary data): positively affects | Rotarod effect (R6/2 transgenic mice [3]; 20 mg/kg/day IP-BID, any time point tested (6, 8, 10, 12 weeks of age)): did not have a statistically significant effect | Rotarod effect vs vehicle-treated R6/2 animals (R6/2 transgenic mice [3]; at the higher dose as printed, P=0.01 (Wilcoxon test)): statistically-significant effect | Behavior in vivo (rotarod) (R6/2 transgenic mice [3]; low dose of 4 mg/kg/day (2 mg/kg IP twice daily), preliminary data): positively affects | Motor performance by gait analysis (R6/2 mice; 4 and 20 mg/kg dosing, preliminary data): significantly improved the motor performance | Swing ratio score (R6/2 mice; gait analysis at 12 weeks): significantly improved | Inhibition of microglia activation (microglia activation): potent inhibitor | Known side effects in humans [4]: lethargy, apathy, and weakness
